Assay results taken from patent US20050014647A1, “Method and composition for determining resistance to an acetohydroxy-acid synthase inhibitor” (priority 2001, published 2005).
Several values for one entry are separate records, joined by “and”; a condition that tells them apart may be missing. Identical values can stand only once.

Experiments:
Assay type in all cases: cell-based
[1] = test system: AHAS; test: in vivo AHAS assay, canola leaf discs with external supplement; details: canola, 14 hours; for % of 0/0 / OD 530, Avg. of the treated discs / OD 530, Treated: replicates 1-3; for OD 530, Treated: single treated discs; for % of No Alaninor Pyruvate: Alanine 0 %
Procedure: The procedure for the preparation of an in vivo AHAS assay is described below:
For the experiments, plants are grown from seed in soil in a greenhouse. Most experiments used wild type and imidazolinone resistant varieties of wheat, canola, rice, sunflower, and maize.
For the assay, a a microtiter plate is set up with 100 μl of one of the following solutions in each well: • a. Solution A: 10 mM phosphate buffer, pH 6; 10% Murashige and Skoog basal mineral salts (according to Murashige, T. and Skoog, F., Physiol. Plant., 15 473-497 (1962)); 500 μM CPCA (cyclopropyldicarboxylic acid); • b. Solution B: Solution A+alanine (or other supplements); • c. Solution C: Solution A+a pyruvate salt (or other supplements).
Plant material is excised from the newest emerging, rapidly growing leaf or stem from the test plant and placed in one of the microtiter plates. Usually, 5 mm leaf discs are cut from the newest emerging leaf. At least 2 discs per plant are cut. One disc is put in a well with Solution A and the other disc in a well with one of the other Solutions B or C (what solution are you using for background?).
After all wells in the microtiter plate contain plant material, the plate is covered with the microtiter plate cover and the plate with material is placed in a chamber with continuous fluorescent lights for 12 to 16 hours. The incubation is stopped by placing the plate in −20° C. freezer. After tissue and solutions freeze, the plate is thawed at room temperature and 25 μL of 5% sulfuric acid are added to each well. After incubation at 60° C. for 15 minutes, 175 μL of a freshly prepared mixture of α-naphthol (2.5%) and creatine (0.25%) in 2 N NaOH are added to each well and the plate is incubated at 60° C. for 15 minutes.
200 μL from each well are transferred to a new plate and OD530 on microtiter plate is readed by a spectrophotometer.

[2] = test system: AHAS; test: AHAS assay of resistant and non-resistant crops, wheat leaf slices; design: dose or concentration left out as unconfirmed; details: imazamox and CPCA, average of four plants
Procedure: (§1) For the experiments, plants are grown from seed in soil in a greenhouse. The experiments used wild type and imidazolinone resistant varieties of maize and wheat.
(§2) For the assay, a microtiter plate is set up with […] of one of the following solutions in each well: • Solution A: 10 mM phosphate buffer (pH 4.4), 10% prepared Murashige and Skoog basal mineral salt stock solution, 0.5% (w/v) alanine, 50 mM pyruvate salt, and 0.5 mM CPCA (cyclopropyldicarboxylic acid); • Solution B: Solution A+0.0025 mM imazamox; • Solution C: Solution A without 0.5 mM CPCA
(§3) Plant material is excised from the newest emerging leaf for wheat or rapidly growing stem for maize from the test plant and placed in one of the microtiter plates. Usually, 3 to 5 mm slices are cut from the newest emerging leaf or stem. At least 3 same-length slices per plant are cut. One disc is put in a well with Solution A, one in a well with Solution B, and the last one in a well with Solution C.
(§4) After all wells in the microtiter plate contain plant material, the plate is covered with a plate cover and is placed under continuous fluorescent lights for 14 to 18 hours. The incubation is stopped by placing the plate in a −20° C. freezer. After tissue and solutions freeze, the plate is thawed at room temperature, and […] of 5% sulfuric acid is added to each well. After incubation at 60° C. for 15 minutes, […] of a freshly prepared mixture of α-naphthol (2.5%, w/v) and creatine (0.25%, w/v) in 2 N NaOH are added to each well and the plate is incubated at 60° C. for 15 minutes.
(§5) A 190 μl solution from each well is transferred to a new plate, and OD530 on microtiter plate is readed by a spectrophotometer.
(§6) AHAS activity of each plant is determined by the following formula: (OD530 of well B−OD530 of well C)/(OD530 of well A−OD530 of well C).

[3] = test system: AHAS; test: AHAS assay of resistant and non-resistant crops, maize stem slices; design: dose or concentration left out as unconfirmed; details: imazamox and CPCA, average of four plants
Procedure: as §1, §2, §3, §4, §5, §6

SMILES: NC(=O)C[C@H](N)C(=O)O [Asparagine, L-asparagine]
- % of 0/0 ([1]; Asparagine (100 mM)): 107% and 141% and 91%
- OD 530, Avg. of the treated discs ([1]; Asparagine (100 mM)): 1.384 and 0.796 and 1.206
- OD 530, Treated ([1]; Asparagine (100 mM)): 1.011 and 0.718 and 1.279 and 1.343 and 0.880 and 1.094 and 1.843 and 0.907 and 1.186

SMILES: CC(=O)C(=O)O [Pyruvate, Na-Pyruvate]
- % of No Alaninor Pyruvate ([1]; Pyruvate 25 mM): 110%
- % of No Alaninor Pyruvate ([1]; Pyruvate 50 mM): 139%
- % of No NH4 or Pyruvate ([1]; NH4 0 mM, Pyruvate 6.25 mM): 109%
- % of No NH4 or Pyruvate ([1]; NH4 0 mM, Pyruvate 12.5 mM): 128%
- % of No NH4 or Pyruvate ([1]; NH4 0 mM, Pyruvate 25 mM): 138%
- % of No NH4 or Pyruvate ([1]; NH4 0 mM, Pyruvate 50 mM): 175%
- % of 0/0 ([1]; Pyruvate (100 mM)): 134% and 153% and 188%
- OD 530, Avg. of the treated discs ([1]; Pyruvate (100 mM)): 1.510 and 1.730 and 1.950
- OD 530, Treated ([1]; Pyruvate (100 mM)): 1.526 and 1.848 and 1.972 and 1.469 and 1.846 and 2.235 and 1.725 and 1.796 and 2.100

SMILES: COCc1cnc(C2=NC(C)(C(C)C)C(=O)N2)c(C(=O)O)c1 (stereo not shown) [imazamox]
- Relative AHAS activity (%) ([2]; Wheat variety CV 9804 (Moderate-resistance)): 22.4%
- Relative AHAS activity (%) ([2]; Wheat variety Riband (Non-resistance)): 1.5%
- Relative AHAS activity (%) ([2]; Wheat variety Teal 15A (High-resistance)): 57.7%
- Relative AHAS activity (%) ([3]; Maize variety Garst 8541 IT (Moderate-resistance)): 45.2%
- Relative AHAS activity (%) ([3]; Maize variety Pioneer 3395 IR (High-resistance)): 67.3%
- Relative AHAS activity (%) ([3]; Maize variety Pioneer 3514 (Non-resistance)): 5.8%

SMILES: N.O [NH4OH, ammonium hydroxide]
- % of No NH4 or Pyruvate ([1]; NH4 6.25 mM, Pyruvate 0 mM): 101%
- % of No NH4 or Pyruvate ([1]; NH4 12.5 mM, Pyruvate 0 mM): 138%
- % of No NH4 or Pyruvate ([1]; NH4 25 mM, Pyruvate 0 mM): 128%
- % of No NH4 or Pyruvate ([1]; NH4 50 mM, Pyruvate 0 mM): 142%
- % of 0/0 ([1]; NH4OH (50 mM)): 113% and 111% and 157%
- OD 530, Avg. of the treated discs ([1]; NH4OH (50 mM)): 0.697 and 0.886 and 1.386
- OD 530, Treated ([1]; NH4OH (50 mM)): 0.604 and 0.880 and 1.386 and 0.522 and 0.866 and 1.177 and 1.003 and 0.953 and 1.845
